Measurements: patent US20100234364A1, “CCR2 INHIBITORS AND METHODS OF USE THEREOF” (priority 2007, published 2010)

molecular target: T1, CCR2 (Homo sapiens, UniProt P41597); test: chemotaxis (conventional migration), ligand binding or calcium mobilization (calcium flux) assays; assay type: cell-based; conditions: Table 2: activity in one of the chemotaxis
T1 construct: chemokine expressing cells (such as THP-1 cells for CCR2 assay or MOLT-4 cells for CCR9 assay); host or cells: THP-1 cells
Description: THP-1 cells and MOLT-4 cells were obtained from the American Type Culture Collection (Manassas, Va.) and cultured in RPMI tissue culture medium supplemented with 10% fetal calf serum (FCS) in a humidified 5% CO2 incubator at 37° C. Recombinant human chemokine proteins MCP-1 and TECK were obtained from R&D Systems (Minneapolis, Minn.). ^125I-labeled MCP-1 protein was obtained from Amersham (Piscataway, N.J.). ChemoTX® chemotaxis microchambers were purchased from Neuro Probe (Gaithersburg, Md.). CyQUANT® cell proliferation kits were purchased from Molecular Probes (Eugene, Oreg.). Calcium indicator dye Fluo-4 AM was purchased from Molecular Devices (Mountain View, Calif.).
Conventional-migration assay was used to determine the efficacy of potential receptor antagonists in blocking migration mediated through chemokines (such as CCR2 or CCR9). This assay was routinely performed using the ChemoTX® microchamber system with a 5-μm pore-sized polycarbonate membrane. To begin such an assay, chemokine expressing cells (such as THP-1 cells for CCR2 assay or MOLT-4 cells for CCR9 assay) were harvested by centrifugation of cell suspension at 1000 RPM on a GS-6R Beckman centrifuge. The cell pellet was resuspended in chemotaxis buffer (HBSS with 0.1% BSA) at 10×10^6cells/mL for CCR2 assay (5 ×10^6cells/mL for CCR9 assay). Test compounds at desired concentrations were prepared from 10 mM stock solutions by serial dilutions in chemotaxis buffer. An equal volume of cells and compounds were mixed and incubated at room temperature for 15 minutes. Afterwards, 20 μL of the mixture was transferred onto the porous membrane of a migration microchamber, with 29 μL of chemokine ligand (0.1 nM chemokine MCP-1 protein for CCR2 assay or 50 nm chemokine TECK protein for CCR9 assay) placed at the lower chamber. Following an incubation at 37° C. (90-minute for CCR2; 150-minute for CCR9), during which cells migrated […] the chemokine gradient, the assay was terminated by removing the cell drops from atop the filter. To quantify cells migrated across the membrane, 5 μL of 7X CyQUANT® solution was added to each well in the lower chamber, and the fluorescence signal measured on a Spectrafluor Plus fluorescence plate reader (TECAN, Durham, N.C.). The degree of inhibition was determined by comparing migration signals between compound-treated and untreated cells. IC50 calculation was further performed by non-linear squares regression analysis using Graphpad Prism (Graphpad Software, San Diego, Calif.).
Calcium flux assay measures an increase in intracellular calcium following ligand-induced receptor activation. In the screen of chemokine antagonists, it was used as a secondary assay carried out on a FLIPR® machine (Molecular Devices, Mountain View, Calif.). To begin an assay, chemokine expressing cells (such as THP-1 cells for CCR2 assay or MOLT-4 cells for CCR9 assay) were harvested by centrifugation of cell suspension, and resuspended to 1.5×10^6 cells/mL in HBSS (with 1% fetal calf serum). Cells were then labeled with a calcium indicator dye Fluo-4 AM for 45 minutes at 37° C. with gentle shaking. Following incubation, cells were pelletted, washed once with HBSS and resuspended in the same buffer at a density of 1.6×10^6 cells/mL. One hundred microliters of labeled cells were mixed with 10 μL of test compound at the appropriate concentrations on an assay plate. Chemokine protein (MCP-1 at a final concentration of 0.1 nM for CCR2 assay or TECK at a final concentration of 25 nM for CCR9 assay) to activate the receptor. The degree of inhibition was determined by comparing calcium signals between compound-treated and untreated cells. IC50 calculations were further performed by non-linear squares regression analysis using Graphpad Prism (Graphpad Software, San Diego, Calif.).
Ligand binding assay was used to determine the ability of potential CCR2 antagonists to block the interaction between CCR2 and its ligand MCP-1. […]

T1 sequence (P41597 whole entry): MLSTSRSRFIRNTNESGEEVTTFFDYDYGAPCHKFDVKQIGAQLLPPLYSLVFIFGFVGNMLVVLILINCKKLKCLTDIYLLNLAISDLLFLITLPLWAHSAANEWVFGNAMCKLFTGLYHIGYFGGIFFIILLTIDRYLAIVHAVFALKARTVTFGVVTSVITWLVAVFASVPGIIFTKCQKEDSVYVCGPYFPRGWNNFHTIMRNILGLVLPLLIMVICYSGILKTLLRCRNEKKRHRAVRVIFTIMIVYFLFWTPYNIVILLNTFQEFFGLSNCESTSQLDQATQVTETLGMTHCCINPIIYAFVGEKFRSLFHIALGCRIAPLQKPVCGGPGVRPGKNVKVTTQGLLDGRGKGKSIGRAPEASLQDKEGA

Row | Structure (SMILES) | IC50
1 | O=S(=O)(Nc1cc(Cl)ccc1C(O)c1ccccc1)c1ccc(Cl)c(C(F)(F)F)c1 (stereo not shown) | < 500 nM
2 | O=C(c1ccncc1)c1ccc(Cl)cc1NS(=O)(=O)c1ccc(Cl)c(C(F)(F)F)c1 | < 500 nM
3 | O=S(=O)(Nc1cc(Cl)ccc1Oc1ccccc1)c1ccc(Cl)c(C(F)(F)F)c1 | < 500 nM
4 | O=C(c1ccc(Cl)cc1NS(=O)(=O)c1ccc(Cl)c(C(F)(F)F)c1)N1CCOCC1 | < 500 nM
5 | O=C(c1ccc(Cl)cc1NS(=O)(=O)c1ccc(Cl)c(C(F)(F)F)c1)N1CCS(=O)(=O)CC1 | < 500 nM
6 | CN(C)C(=O)C1CCCN1C(=O)c1ccc(Cl)cc1NS(=O)(=O)c1ccc(Cl)c(C(F)(F)F)c1 (stereo not shown) | < 500 nM
7 | O=C(c1ccccc1)c1ccc(Cl)cc1NS(=O)(=O)c1ccc(F)c(F)c1 | < 500 nM
8 | O=C(c1ccccc1)c1ccc(Cl)cc1NS(=O)(=O)c1cccc(C(F)(F)F)c1 | < 500 nM
9 | O=C(c1ccccc1)c1ccc(Cl)cc1NS(=O)(=O)c1ccc(Cl)cc1 | < 500 nM
10 | O=C(c1cocn1)c1cc(Cl)ccc1NS(=O)(=O)c1ccc(Cl)c(C(F)(F)F)c1 | < 500 nM
11 | O=C(c1cccnc1)c1cc(F)c(F)cc1NS(=O)(=O)c1ccc(Cl)c(C(F)(F)F)c1 | < 500 nM
12 | O=C(c1ccc(Cl)cc1NS(=O)(=O)c1ccc(Cl)c(Cl)c1)N1CCOCC1 | < 500 nM
13 | O=C(c1ccccc1)c1ccc(Br)cc1NS(=O)(=O)c1ccc(Cl)c(C(F)(F)F)c1 | < 500 nM
14 | O=C(c1cccnc1)c1cc(Cl)ccc1NS(=O)(=O)c1ccc(Cl)c(Cl)c1 | < 500 nM
15 | Cc1ccc(C(=O)c2cc(Cl)ccc2NS(=O)(=O)c2ccc(Cl)c(Cl)c2)cn1 | < 500 nM
16 | O=C(O)c1cc(S(=O)(=O)Nc2ccc(Cl)cc2C(=O)c2ccccc2)c(F)cc1Cl | < 500 nM
17 | O=C(c1ccccc1)c1ccc(F)cc1NS(=O)(=O)c1ccc(Cl)c(C(F)(F)F)c1 | < 500 nM
18 | Cc1cc(S(=O)(=O)Nc2cc(Cl)ccc2C(=O)N(C)c2ccccn2)ccc1Cl | < 500 nM
19 | CN(C(=O)c1ccc(Cl)cc1NS(=O)(=O)c1cccc(C(F)(F)F)c1)c1ccccn1 | < 500 nM
20 | CO/N=C(/c1ccc(Cl)cc1NS(=O)(=O)c1ccc(Cl)c(C(F)(F)F)c1)c1ccnc2[nH]ccc12 | < 500 nM
21 | Cc1nnc(-c2cc(Cl)ccc2NS(=O)(=O)c2ccc(C(C)(C)C)cc2)c2ccccc12 | < 500 nM
22 | O=C(c1ccccc1)c1ccc(Cl)cc1NS(=O)(=O)c1ccc(Cl)c(C(F)(F)F)c1 [drawing 278] | < 500 nM
23 | O=C(c1ccccc1)c1cc(F)ccc1NS(=O)(=O)c1ccc(Cl)c(Cl)c1 [drawing 300] | < 500 nM
24 | O=C(c1ccccc1)c1ccc(Br)cc1NS(=O)(=O)c1ccc(Cl)c(Cl)c1 [drawing 301] | < 500 nM

The remaining lines, values ahead:

Row | IC50 | Structure (SMILES)
25 | < 500 nM | COC(=O)C1CCCN1C(=O)c1ccc(Cl)cc1NS(=O)(=O)c1ccc(Cl)c(C(F)(F)F)c1 (stereo not shown)
26 | < 500 nM | Cn1cncc1C(=O)c1ccc(Cl)cc1NS(=O)(=O)c1ccc(Cl)c(C(F)(F)F)c1
27 | < 500 nM | O=C(c1ccc(Cl)cc1NS(=O)(=O)c1ccc(Cl)c(C(F)(F)F)c1)N1CCCC1
28 | < 500 nM | Cn1nc(-c2cc(Cl)ccc2NS(=O)(=O)c2ccc(Cl)c(C(F)(F)F)c2)c2ccccc21
29 | < 500 nM | O=C(c1ccc(Cl)cc1NS(=O)(=O)c1ccc(Cl)c([N+](=O)[O-])c1)N1CCOCC1
30 | < 500 nM | Cn1nnnc1-c1ccc(Cl)cc1NS(=O)(=O)c1ccc(Cl)c(C(F)(F)F)c1
31 | < 500 nM | O=C(c1ccc(Cl)cc1NS(=O)(=O)c1ccc(Cl)c(C(F)(F)F)c1)c1ccnc2[nH]ccc12
32 | < 500 nM | CC(C)(C)c1ccc(S(=O)(=O)Nc2ccc(Cl)cc2-c2nncc3ccccc23)cc1
33 | < 500 nM | O=C(c1ccc(Cl)cc1NS(=O)(=O)c1ccc(Cl)c(C(F)(F)F)c1)N1CCCCC1 [drawing 291]
34 | < 500 nM | O=C(c1ccccc1)c1cc(Cl)ccc1NS(=O)(=O)c1ccc(Cl)c(Cl)c1 [drawing 296]
35 | < 500 nM | O=C(c1ccccc1)c1cc(Cl)ccc1NS(=O)(=O)c1ccc(Cl)cc1 [drawing 298]

same assay, conditions: Table 3: activity in one of the chemotaxis

Row | Structure (SMILES) | IC50
36 | COc1ccc(NS(=O)(=O)c2ccc(Cl)c(Cl)c2)c(C(=O)N2CCOCC2)c1 | 500 to 5000 nM
37 | O=C(c1ccccn1)c1cc(Cl)ccc1NS(=O)(=O)c1ccc(Cl)c(C(F)(F)F)c1 | 500 to 5000 nM
38 | Cn1ccnc1C(=O)c1cc(Cl)ccc1NS(=O)(=O)c1ccc(Cl)c([N+](=O)[O-])c1 | 500 to 5000 nM
39 | CNC(=O)C1CCCN1C(=O)c1ccc(Cl)cc1NS(=O)(=O)c1ccc(Cl)c(C(F)(F)F)c1 (stereo not shown) | 500 to 5000 nM
40 | O=C(c1ccc(Cl)cc1NS(=O)(=O)c1ccc(Cl)cc1)N1CCOCC1 | 500 to 5000 nM
41 | O=C(c1cc(Br)ccc1NS(=O)(=O)c1ccc(Cl)cc1)N1CCOCC1 | 500 to 5000 nM
42 | O=C(c1ccccc1)c1cc(Cl)ccc1NS(=O)(=O)c1cccc(C(F)(F)F)c1 | 500 to 5000 nM
43 | O=C(c1ccccc1)c1cc(Cl)ccc1NS(=O)(=O)c1ccc(F)c(Cl)c1 | 500 to 5000 nM
44 | O=C(c1ccncc1)c1cc(Cl)ccc1NS(=O)(=O)c1ccc(Cl)cc1 | 500 to 5000 nM
45 | O=C(c1cc(Cl)ccc1NS(=O)(=O)c1cccc(Cl)c1)N1CCOCC1 | 500 to 5000 nM
46 | O=C(c1cc(Cl)ccc1NS(=O)(=O)c1ccc(Cl)c(Cl)c1)N1CCOCC1 | 500 to 5000 nM
47 | Cc1cc(S(=O)(=O)Nc2cc(Cl)ccc2C(=O)N2CCOc3cccnc32)ccc1Cl | 500 to 5000 nM
48 | O=C(c1cc(Cl)ccc1NS(=O)(=O)c1ccc(Br)cc1)N1CCOCC1 | 500 to 5000 nM
49 | O=C(c1ccc(Cl)cc1NS(=O)(=O)c1ccc(C(F)(F)F)cc1Cl)N1CCOCC1 | 500 to 5000 nM
50 | CON=C(c1ccccc1)c1cc(Cl)ccc1NS(=O)(=O)c1ccc(Cl)c(Cl)c1 | 500 to 5000 nM
51 | O=S(=O)(Nc1ccc(Cl)cc1Oc1ccccc1)c1ccc(Cl)c(Cl)c1 | 500 to 5000 nM
52 | Cn1ccnc1C(=O)c1cc(Cl)ccc1NS(=O)(=O)c1ccc(Cl)c(Cl)c1 | 500 to 5000 nM
53 | COC(=O)c1cc(NS(=O)(=O)c2ccc(Cl)c(Cl)c2)c(C(=O)c2ccccc2)cc1Cl | 500 to 5000 nM
54 | O=C(c1ccccc1)c1cc(Cl)ccc1NS(=O)(=O)c1ccc(C(F)(F)F)cc1[N+](=O)[O-] | 500 to 5000 nM
55 | O=S(=O)(Nc1ccc(Cl)cc1-c1ccccc1)c1ccc(Cl)c(Cl)c1 | 500 to 5000 nM
56 | O=S(=O)(Nc1cc(Cl)ccc1-c1nnn[nH]1)c1ccc(Cl)c(C(F)(F)F)c1 | 500 to 5000 nM
57 | O=S(=O)(Nc1cc(Cl)ccc1-c1ncco1)c1ccc(Cl)c(Cl)c1 | 500 to 5000 nM
58 | O=S(=O)(Nc1ccc(Cl)cc1-c1ccccn1)c1ccc(Cl)c(C(F)(F)F)c1 | 500 to 5000 nM
59 | O=C(c1ccc(Cl)cc1NS(=O)(=O)c1ccc(Br)c(F)c1)N1CCOCC1 | 500 to 5000 nM

Now from value to molecule:

Row | IC50 | Structure (SMILES)
60 | 500 to 5000 nM | N#Cc1cc(S(=O)(=O)Nc2cc(Cl)ccc2C(=O)c2ccccc2)ccc1F
61 | 500 to 5000 nM | Cc1ccc(C(=O)c2ccccc2)c(NS(=O)(=O)c2ccc(Cl)c(C(F)(F)F)c2)c1
62 | 500 to 5000 nM | O=S(=O)(Nc1ccccc1Oc1ccccc1)c1ccc(Cl)c(Cl)c1
63 | 500 to 5000 nM | O=C(c1ccccn1)c1cc(Cl)ccc1NS(=O)(=O)c1ccc(Cl)c(Cl)c1
64 | 500 to 5000 nM | O=C(c1cc(Cl)ccc1NS(=O)(=O)c1ccc(Cl)cc1)N1CCOCC1
65 | 500 to 5000 nM | Cc1cccc(S(=O)(=O)Nc2ccc(Cl)cc2C(=O)N2CCOCC2)c1
66 | 500 to 5000 nM | O=C(c1cc(Cl)ccc1NS(=O)(=O)c1ccc(Cl)cc1Cl)N1CCOCC1
67 | 500 to 5000 nM | O=C(c1cc(Cl)ccc1NS(=O)(=O)c1ccc(Cl)cc1)N1CCCCC1
68 | 500 to 5000 nM | O=C(c1ccccc1)c1cc(Cl)ccc1NS(=O)(=O)c1ccc(Cl)c([N+](=O)[O-])c1
69 | 500 to 5000 nM | Cc1ccc(S(=O)(=O)Nc2ccc(Cl)cc2C(=O)c2ccccc2)cc1Cl
70 | 500 to 5000 nM | O=C(O)C1CCCN1C(=O)c1ccc(Cl)cc1NS(=O)(=O)c1ccc(Cl)c(C(F)(F)F)c1 (stereo not shown)
